{"source": "patent US20240327372A1", "about": "“PREPARATION OF PHENE[…] […] STEREOISOMERS THEREOF AND PRECURSORS THEREOF” (priority 2022, published 2024)", "key": {"[1]": {"molecular_target": "hKir2.1 (Homo sapiens (Human), UniProt P63252)", "sequence (P63252 whole entry)": "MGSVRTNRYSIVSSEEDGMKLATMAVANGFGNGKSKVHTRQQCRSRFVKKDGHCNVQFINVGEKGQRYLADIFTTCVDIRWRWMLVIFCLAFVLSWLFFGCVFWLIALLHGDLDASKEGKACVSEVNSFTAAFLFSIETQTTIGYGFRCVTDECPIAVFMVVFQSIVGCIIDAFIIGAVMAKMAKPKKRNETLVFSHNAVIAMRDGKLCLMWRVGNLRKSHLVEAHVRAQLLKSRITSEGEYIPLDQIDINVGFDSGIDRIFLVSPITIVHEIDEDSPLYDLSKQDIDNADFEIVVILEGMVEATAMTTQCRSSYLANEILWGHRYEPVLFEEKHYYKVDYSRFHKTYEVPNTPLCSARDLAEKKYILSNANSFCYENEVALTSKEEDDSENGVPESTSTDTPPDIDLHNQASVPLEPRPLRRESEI", "assay_type": "cell-based", "protocol": "(§1) Electrophysiological assays were conducted to profile three compounds ((R)-methylone, (S)-methylone, or racemic methylone) for activities on the ion channel targets specified below using the Qube electrophysiological platform. Where presented, IC50 values were determined by a non-linear, least squares regression analysis. Reference standards were run as an integral part of each assay to ensure the validity of the results obtained.\n(§2) Ion Channels tested were Eurofins Panel Part Number: CPROFullQB2DR Voltage-Gated Sodium: HEK-Nav1.5 (Peak), HEK-Nav1.5 (Late, Antagonist) Voltage-Gated Potassium: HEK-Kv4.3/KChIP2, CHO-hERG, CHO-KCNQ1/minK Voltage-Gated Calcium: HEK-Cav1.2 Inward-Rectifying Voltage-Gated Potassium: HEK-Kir2.1.\nhKir2.1 Potassium Channel Assay—Qube APC After whole cell configuration is achieved, the cells are held at −30 mV. Kir2.1 currents are evoked by a single 500 ms pulse to −120 mV before returning to the holding potential of −30 mV. This paradigm is delivered once every 20 s to monitor the current amplitude."}, "[2]": {"assay": "XRPD of pre- and post-DVS samples (form stability)", "assay_type": "physicochemical", "conditions": "pre- versus post-DVS", "protocol": "(§3) Two lots of methylone HCl samples were submitted to evaluate the stability of the solid forms under various humidity conditions. Dynamic vapor sorption (DVS) analysis was performed to evaluate the kinetic hygroscopicity and assess if variable humidity XRPD would be necessary, as well as to determine the appropriate humidity condition(s) for such XRPD analysis. Both pre- and post-DVS samples were analyzed by conventional XRPD for solid form confirmation or any potential form changes.\nThe XRPD patterns between the pre- and post-DVS samples were compared for lots 213220 and KRR-R&D-2022-II-58, respectively.\nEach sample was prepared in a silicon low background holder using light manual pressure to keep the sample surface flat and level with the reference surface of the sample holder. The single crystal Si low background holder has a circular recess (10 mm diameter and about 0.2 mm depth) that holds the sample. The Rigaku Smart-Lab diffraction system used was configured for Bragg-Brentano reflection geometry using a line source X-ray beam. The Bragg-Brentano geometry was controlled by passive divergence and receiving slits with the sample itself acting as the focusing component for the optics."}, "[3]": {"assay": "Dynamic vapor sorption (DVS)", "assay_type": "physicochemical", "protocol": "as §3\nDVS analyses were carried out using a TA Instruments Q5000 Dynamic Vapor Sorption analyzer. The instrument was calibrated with standard weights and a sodium bromide standard for humidity. Approximately 12-13 mg of each powder sample was loaded into a metal-coated quartz pan for analysis. The samples were analyzed from 5 to 95% RH (adsorption cycle) and from 95 to 5% RH (desorption cycle) in 10% RH steps. The movement from one step to the next occurred either after satisfying the equilibrium criterion of 0.01% weight change in 5 minutes or, if the equilibrium criterion was not met, after 90 minutes. The percent weight change values were calculated using Microsoft EXCEL® 2016."}, "[4]": {"molecular_target": "hKCNQ1/hminK (Homo sapiens (Human), UniProt P51787)", "assay": "hKCNQ1/hminK Potassium Channel Assay, Qube APC", "assay_type": "cell-based", "conditions": "KCNQ1/mink", "protocol": "as §1, §2\nhKCNQ1/hminK Potassium Channel Assay—Qube APC After whole cell configuration is achieved, the cells are held at −80 mV. KCNQ1/minK currents are evoked by a 1000 ms pulse from −80 mV to 60 mV followed by a ramp from 60 mV to −80 mV over 115 ms with the outward peak currents measured upon depolarization of the cell membrane. This paradigm is delivered once every 15 s to monitor the current amplitude."}, "[5]": {"molecular_target": "hKv4.3/hKChIP2 (Homo sapiens (Human), UniProt Q9UK17)", "sequence (Q9UK17 whole entry, looked up)": "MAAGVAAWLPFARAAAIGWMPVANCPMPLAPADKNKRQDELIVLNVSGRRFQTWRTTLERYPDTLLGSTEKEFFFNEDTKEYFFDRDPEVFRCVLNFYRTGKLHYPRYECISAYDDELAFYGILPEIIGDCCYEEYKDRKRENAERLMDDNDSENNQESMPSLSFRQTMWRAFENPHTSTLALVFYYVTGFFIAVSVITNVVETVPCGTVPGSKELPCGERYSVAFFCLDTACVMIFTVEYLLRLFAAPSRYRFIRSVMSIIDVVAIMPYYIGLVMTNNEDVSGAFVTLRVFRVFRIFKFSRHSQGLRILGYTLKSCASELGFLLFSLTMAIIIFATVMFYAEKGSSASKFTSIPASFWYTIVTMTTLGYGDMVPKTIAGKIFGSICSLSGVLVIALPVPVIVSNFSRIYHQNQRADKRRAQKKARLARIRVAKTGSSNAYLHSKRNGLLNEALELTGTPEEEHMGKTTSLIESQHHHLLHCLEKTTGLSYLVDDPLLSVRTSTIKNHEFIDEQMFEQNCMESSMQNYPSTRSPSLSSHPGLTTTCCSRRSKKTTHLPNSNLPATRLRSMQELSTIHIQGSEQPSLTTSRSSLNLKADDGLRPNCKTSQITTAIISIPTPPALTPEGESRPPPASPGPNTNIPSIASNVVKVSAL", "sequence (Q9NS61 whole entry partner, looked up)": "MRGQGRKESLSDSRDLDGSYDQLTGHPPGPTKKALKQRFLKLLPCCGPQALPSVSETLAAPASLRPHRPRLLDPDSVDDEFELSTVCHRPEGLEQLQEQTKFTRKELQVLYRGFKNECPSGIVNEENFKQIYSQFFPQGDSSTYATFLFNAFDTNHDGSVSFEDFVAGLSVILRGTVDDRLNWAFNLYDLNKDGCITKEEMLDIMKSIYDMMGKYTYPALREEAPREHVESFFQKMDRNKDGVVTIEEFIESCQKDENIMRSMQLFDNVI", "assay": "hKv4.3/hKChIP2 Potassium Channel Assay, Qube APC", "assay_type": "cell-based", "protocol": "as §1, §2\nhKv4.3/hKChIP2 Potassium Channel Assay—Qube APC After whole cell configuration is achieved, the cells are held at −80 mV. Onset and steady state block of hKv4.3 current is measured using a pulse pattern from −80 mV to 40 mV amplitude for a 110 ms duration, and finally a 100 ms ramp (1.2 V/s) to −80 mV. This paradigm is delivered once every 5 s to monitor the current amplitude."}, "[6]": {"molecular_target": "hNav1.5 Late Current (Homo sapiens (Human), UniProt Q14524)", "assay": "hNav1.5 Late Current Sodium Channel Assay, Qube APC", "assay_type": "cell-based", "conditions": "Nav1.5 Late Current, Antagonist mode, test compound", "protocol": "as §1, §2\n(§4) hNav1.5 Late Current Sodium Channel Assay—Qube APC Onset and steady state block of Late Nav1.5 current is measured using a pulse pattern, repeated every 5 sec, consisting of a hyperpolarizing pulse to −120 mV for a 200 ms duration, depolarization to −15 mV amplitude for a 40 ms duration, followed by step to 40 mV for 200 ms and finally a 100 ms ramp (1.2 V/s) to a holding potential of −80 mV. Late current is measured as charge current elicited during the ramp with 50 nM ATXII."}, "[7]": {"molecular_target": "hCav1.2 (Homo sapiens (Human), UniProt Q13936)", "assay": "hCav1.2 (L-type) Calcium Channel Assay, Qube APC", "assay_type": "cell-based", "conditions": "Cav1.2, Antagonist mode, test compound", "protocol": "(§5) Where presented, IC50 values were determined by a non-linear, least squares regression analysis.\n(§6) Recombinant HEK-293 cells stably transfected with human Nav1.5 cDNA, recombinant HEK293 cell line expressing the human Cav1.2 (L-type voltage gated calcium channel, hCav1.2 α1C/β2a/α2δ1, and recombinant CHO-K1 cells stably transfected with human hERG cDNA were used separately in each of these assays.\nhCav1.2 (L-type) Calcium Channel Assay—Qube APC After whole cell configuration is achieved, the cells are held at −90 mV. Cav1.2 currents are evoked by a 50 ms pulse to −100 mV followed by a 200 ms pulse to +20 mV before returning to the holding potential of −90 mV. This paradigm is delivered three times every 60 s to monitor the current amplitude."}, "[8]": {"molecular_target": "hNav1.5 (Homo sapiens (Human), UniProt Q14524)", "assay": "hNav1.5 Sodium Channel Assay (peak), Qube APC", "assay_type": "cell-based", "conditions": "Nav1.5, Antagonist mode, test compound", "protocol": "as §5, §6\nas §4, with “hNav1.5” for “hNav1.5 Late Current”, “of peak” for “of Late”, “mV. Peak” for “mV. Late”, “measured” for “measured as charge current elicited”, “the step to −15 mV.” for “the ramp with 50 nM ATXII.”"}}, "note": "Structures can show the parent of a compound that is named as a salt."}
{"compound": "[Ba+2].[Cl-].[Cl-]", "note": "[Barium Chloride]", "values": [{"measurement": "IC50", "setting": "[1]; Kir2.1, reference compound, read-out: Estimated IC50", "value": 14.4, "unit": "µM"}]}
{"compound": "CNC(C)C(=O)c1ccc2c(c1)OCO2.Cl", "note": "[lot KRR-R&D-2022-II-58, methylone HCl]", "values": [{"measurement": "Form changes of post-DVS samples (XRPD)", "setting": "[2]", "value": "No form changes"}, {"measurement": "Adsorbed water retained upon desorption", "setting": "[3]", "value": "approximately 0.06%"}, {"measurement": "Hysteresis upon desorption", "setting": "[3]", "value": "slight hysteresis"}]}
{"compound": "CCS(=O)(=O)N(C)[C@H]1c2cc(C#N)ccc2OC(C)(C)[C@@H]1O", "note": "(racemic) [Chromanol 293B]", "values": [{"measurement": "IC50", "setting": "[4]; reference compound, read-out: Estimated IC50", "value": 45.3, "unit": "µM"}]}
{"compound": "O=C(NCC1CCCCN1)c1cc(OCC(F)(F)F)ccc1OCC(F)(F)F", "note": "(centres unmarked) [Flecainide]", "values": [{"measurement": "IC50", "setting": "[5]; Kc4.3/ChIP2, reference compound, read-out: Estimated IC50", "value": 19.5, "unit": "µM"}]}
{"compound": "CNC(C)C(=O)c1ccc2c(c1)OCO2", "note": "(centres unmarked) [Lot 213220, methylone HCl]", "values": [{"measurement": "Form changes of post-DVS samples (XRPD)", "setting": "[2]", "value": "No form changes"}, {"measurement": "Hysteresis upon desorption", "setting": "[3]", "value": "little to no hysteresis"}]}
{"compound": "CNC(C)C(=O)c1ccc2c(c1)OCO2", "note": "(centres unmarked) [Methylone HCl, methylone HCl]", "values": [{"measurement": "Estimated IC50", "setting": "[6]", "value": "N/C (N/C indicates observed mean inhibition was <25%)"}, {"measurement": "Estimated IC50", "setting": "[5]; Kc4.3/ChIP2, Antagonist mode, test compound", "value": "N/C (N/C indicates observed mean inhibition was <25%)"}, {"measurement": "Estimated IC50", "setting": "[7]", "value": "N/C (N/C indicates observed mean inhibition was <25%)"}, {"measurement": "Estimated IC50", "setting": "[4]; Antagonist mode, test compound", "value": "N/C (N/C indicates observed mean inhibition was <25%)"}, {"measurement": "Estimated IC50", "setting": "[1]; Kir2.1, Antagonist mode, test compound", "value": "N/C (N/C indicates observed mean inhibition was <25%)"}, {"measurement": "Estimated IC50", "setting": "[8]", "value": "N/C (N/C indicates observed mean inhibition was <25%)"}]}
